The compounds below were run against human PDE10A2 (Homo sapiens (Human), UniProt Q9Y233) (assay: PDE10 fluorescence polarization (IMAP FP) inhibition assay). Conditions: human PDE10A2 from transfected AD293 cells; FAM-labeled cAMP 50 nM; apparent inhibition constant; read-out: PDE10A Ki.
Format: biochemical
Description: The activity of the compounds in accordance with the present invention as PDE10 inhibitors may be readily determined without undue experimentation using a fluorescence polarization (FP) methodology that is well known in the art (Huang, W., et al., J. Biomol Screen, 2002, 7: 215).
In a typical experiment the PDE10 inhibitory activity of the compounds of the present invention was determined in accordance with the following experimental method. PDE10A2 was amplified from human fetal brain cDNA (Clontech, Mountain View, Calif.) using a forward primer corresponding to nucleotides 56-77 of human PDE10A2 (Accession No. AF127480, Genbank Identifier 4894716), containing a Kozak consensus sequence, and a reverse primer corresponding to nucleotides 2406-2413 of human PDE10A2 (Accession No. AF127480, Genbank Identifier 4894716). Amplification with Easy-A polymerase (Stratagene, La Jolla, Calif.) was 95° C. for 2 minutes followed by thirty three cycles of 95° C. for 40 seconds, 55° C. for 30 seconds, and 72° C. for 2 minutes 48 seconds. Final extension was 72° C. for 7 minutes. The PCR product was TA cloned into pcDNA3.2-TOPO (Invitrogen, Carlsbad, Calif.) according to standard protocol. AD293 cells with 70-80% confluency were transiently transfected with human PDE10A2/pcDNA3.2-TOPO using Lipofectamine 2000 according to manufacturer specifications (Invitrogen, Carlsbad, Calif.). Cells were harvested 48 hours post-transfection and lysed by sonication (setting 3, 10×5 sec pulses) in a buffer containing 20 mM HEPES, 1 mM EDTA and protease inhibitor cocktail (Roche). Lysate was collected by centrifugation at 75,000×g for 20 minutes. Supernatant containing the cytoplasmic fraction was used for evaluation of PDE10A2 activity. The fluorescence polarization assay for cyclic nucleotide phosphodiesterases was performed using an IMAP® FP kit supplied by Molecular Devices, Sunnyvale, Calif. (product # R8139). IMAP® technology has been applied previously to phosphodiesterase assays (Huang, W., et al., J. Biomol Screen, 2002, 7: 215). Assays were performed at room temperature in 384-well microtiter plates with an incubation volume of 20.2 μL. Solutions of test compounds were prepared in DMSO and serially diluted with DMSO to yield 8 μL of each of 10 solutions differing by 3-fold in concentration, at 32 serial dilutions per plate. […] 0% of inhibition is determined by using DMSO (1% final concentrations).
A Labcyte Echo 555 (Labcyte, Sunnyvale, Calif.) is used to dispense 200 nL from each well of the titration plate to the 384 well assay plate. A solution of enzyme (1/1600 dilution from aliquots; sufficient to produce 20% substrate conversion) and a separate solution of FAM-labeled cAMP PDE from Molecular Devices (product # R7506), at a final concentration of 50 nM are made in the assay buffer (10 mM Tris HCl, pH 7.2, 10 mM MgCl2, 0.05% NaN3 0.01% Tween-20, and 1 mM DTT). The enzyme and the substrate are then added to the assay plates in two consecutive additions of 10 μL, and then shaken to mix. The reaction is allowed to proceed at room temperature for 30 minutes. […] The enzymatic reaction is stopped by addition of 60 μL of the binding solution to each well of the assay plates and the plates are sealed and shaken for 10 seconds. The plate was incubated at room temperature for at least one hour prior to determining the fluorescence polarization (FP). The parallel and perpendicular fluorescence of each well of the plate was measured using a Perkin Elmer EnVision™ plate reader (Waltham, Mass.).
Fluorescence polarization (mP) was calculated from the parallel (S) and perpendicular (P) fluorescence of each sample well and the analogous values for the median control well, containing only substrate (So and Po), using the following equation: Polarization(mP)=1000*(S/So−P/Po)/(S/So+P/Po).
Dose-inhibition profiles for each compound were characterized by fitting the mP data to a four-parameter equation given below.

Chain of human PDE10A2 (Q9Y233 267-1055): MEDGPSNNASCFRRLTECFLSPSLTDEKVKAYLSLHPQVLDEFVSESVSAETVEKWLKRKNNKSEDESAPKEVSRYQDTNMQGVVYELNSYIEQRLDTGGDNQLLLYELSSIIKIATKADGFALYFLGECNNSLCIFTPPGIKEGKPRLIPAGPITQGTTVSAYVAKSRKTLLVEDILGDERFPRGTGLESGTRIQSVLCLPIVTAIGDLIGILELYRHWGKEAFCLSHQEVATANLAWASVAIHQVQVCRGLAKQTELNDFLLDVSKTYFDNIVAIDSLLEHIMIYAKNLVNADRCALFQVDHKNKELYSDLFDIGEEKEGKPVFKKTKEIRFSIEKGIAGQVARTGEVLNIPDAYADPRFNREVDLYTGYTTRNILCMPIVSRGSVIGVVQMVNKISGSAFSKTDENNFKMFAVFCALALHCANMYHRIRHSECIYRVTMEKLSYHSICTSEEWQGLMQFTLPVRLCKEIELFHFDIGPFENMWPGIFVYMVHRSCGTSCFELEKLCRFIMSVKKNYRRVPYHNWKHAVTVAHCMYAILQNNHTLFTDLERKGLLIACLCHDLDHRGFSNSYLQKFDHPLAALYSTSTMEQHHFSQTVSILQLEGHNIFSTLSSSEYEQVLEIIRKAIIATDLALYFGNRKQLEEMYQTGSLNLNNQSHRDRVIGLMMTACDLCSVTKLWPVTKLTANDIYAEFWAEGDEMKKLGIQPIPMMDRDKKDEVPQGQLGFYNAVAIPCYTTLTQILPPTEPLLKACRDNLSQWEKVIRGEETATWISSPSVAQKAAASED

Row | Ki [nM] | Structure (SMILES)
1 | 0.2 | COc1ccc([C@H]2C[C@@H]2COc2nc(C)ncc2-c2cn(C)nc2C(F)(F)F)nc1 [Example 82, 4-(((1S,2S)-2-(5-methoxypyridin-2-yl)cyclopropyl)methoxy)-2-methyl-5-(1-methyl-3-(trifluoromethyl)-1H-pyrazol-4-yl)pyrimidine]
2 | 1.11 | Cc1ccc([C@H]2C[C@@H]2COc2nc(C)ncc2-c2ccc(F)c(F)c2)nc1 [Example 15, 5-(3,4-difluorophenyl)-2-methyl-4-(((1S,2S)-2-(5-methylpyridin-2-yl)cyclopropyl)methoxy)pyrimidine]
3 | 1.04 | Cc1ncc(-c2ccc(C3(O)CCCC3)nc2)c(OC[C@H]2C[C@@H]2c2ccccn2)n1 [Example 120, 1-(5-(2-methyl-4-(((1S,2S)-2-(pyridin-2-yl)cyclopropyl)methoxy)pyrimidin-5-yl)pyridin-2-yl)cyclopentanol]
4 | 13.9 | Cc1ccc([C@H]2C[C@@H]2COc2nc(C)ncc2C2=CC(=O)OC2)nc1 [Example 60, 4-(2-methyl-4-(((1S,2S)-2-(5-methylpyridin-2-yl)cyclopropyl)methoxy)pyrimidin-5-yl)furan-2(5H)-one]
5 | 0.12 | Cc1ncc(-c2ccc(C(F)(F)F)nc2)c(OC[C@H]2C[C@@H]2c2ccc3ccccc3n2)n1 [Example 156, 2-((1S,2S)-2-((2-methyl-5-(6-(trifluoromethyl)pyridin-3-yl)pyrimidin-4-yloxy)methyl)cyclopropyl)quinoline]
6 | 5.48 | COc1ccc([C@H]2C[C@@H]2COc2nc(C)ncc2[C@@H]2CC[C@@H](O)C2)nc1 [Example 80, (1R,3R)-3-(4-(((1S,2S)-2-(5-methoxypyridin-2-yl)cyclopropyl)methoxy)-2-methylpyrimidin-5-yl)cyclopentanol]
7 | 4.01 | COc1ccc([C@H]2C[C@@H]2COc2nc(C)ncc2-c2ccc(C(C)(C)O)nn2)nc1 [Example 100, 2-(6-(4-(((1S,2S)-2-(5-methoxypyridin-2-yl)cyclopropyl)methoxy)-2-methylpyrimidin-5-yl)pyridazin-3-yl)propan-2-ol]
8 | 11.6 | COc1ccc([C@H]2C[C@@H]2COc2nc(C)ncc2-c2ccc(Br)cn2)nc1 [Example 86, 5-(5-bromopyridin-2-yl)-4-(((1S,2S)-2-(5-methoxypyridin-2-yl)cyclopropyl)methoxy)-2-methylpyrimidine]
9 | 3.1 | Cc1ccc([C@H]2C[C@@H]2COc2nc(C)ncc2-c2ccccc2C(F)(F)F)nc1 [Example 14, 2-methyl-4-(((1S,2S)-2-(5-methylpyridin-2-yl)cyclopropyl)methoxy)-5-(2-(trifluoromethyl)phenyl)pyrimidine]
10 | 0.91 | COc1ccc([C@H]2C[C@@H]2COc2nc(C)ncc2-c2ocnc2C)nc1 [Example 257, 5-(4-(((1S,2S)-2-(5-methoxypyridin-2-yl)cyclopropyl)methoxy)-2-methylpyrimidin-5-yl)-4-methyloxazole]
11 | 3.02 | COc1ccc([C@H]2C[C@@H]2COc2nc(C)ncc2-c2ccc(-c3nc(C)no3)cc2)nc1 [Example 253, 5-(4-(4-(((1S,2S)-2-(5-methoxypyridin-2-yl)cyclopropyl)methoxy)-2-methylpyrimidin-5-yl)phenyl)-3-methyl-1,2,4-oxadiazole]
12 | 0.99 | COc1ccc([C@H]2C[C@@H]2COc2nc(C)ncc2-c2cc(Cl)ncc2C(F)(F)F)nc1 [Example 88, 5-(2-chloro-5-(trifluoromethyl)pyridin-4-yl)-4-(((1S,2S)-2-(5-methoxypyridin-2-yl)cyclopropyl)methoxy)-2-methylpyrimidine]
13 | 0.29 | COc1ccc([C@H]2C[C@@H]2COc2nc(C)ncc2-c2ccc(C(=O)O)cc2)nc1 [Example 172, 4-(4-(((1S,2S)-2-(5-methoxypyridin-2-yl)cyclopropyl)methoxy)-2-methylpyrimidin-5-yl)benzoic acid]

More lines, now with the values behind:

Row | Structure (SMILES) | Ki [nM]
14 | COc1ccc([C@H]2C[C@@H]2COc2nc(C)ncc2-c2ccc3[nH]ccc3c2)nc1 [Example 90, 5-(4-(((1S,2S)-2-(5-methoxypyridin-2-yl)cyclopropyl)methoxy)-2-methylpyrimidin-5-yl)-1H-indole] | 2.13
15 | CCc1ccc([C@@H]2C[C@@H]2COc2nc(C)ncc2C2CCC3(CC2)OCCO3)nc1 [Example 194, 4-(((1S,2R)-2-(5-ethylpyridin-2-yl)cyclopropyl)methoxy)-2-methyl-5-(1,4-dioxaspiro[4.5]decan-8-yl)pyrimidine] | 2.98
16 | COc1ccc([C@H]2C[C@@H]2COc2nc(C)ncc2-c2ccc(-c3nnn(C)n3)nc2)nc1 [Example 230, 4-(((1S,2S)-2-(5-methoxypyridin-2-yl)cyclopropyl)methoxy)-2-methyl-5-(6-(2-methyl-2H-tetrazol-5-yl)pyridin-3-yl)pyrimidine] | 1.64
17 | Cc1ccc([C@H]2C[C@@H]2COc2nc(C)ncc2-c2cn(C)nc2C(F)F)nc1 [Example 125, 5-(3-(difluoromethyl)-1-methyl-1H-pyrazol-4-yl)-2-methyl-4-(((1S,2S)-2-(5-methylpyridin-2-yl)cyclopropyl)methoxy)pyrimidine] | 0.4
18 | Cc1ncc([C@H]2CC[C@@H](O)CC2)c(OC[C@H]2C[C@H]2c2ccc3ccccc3n2)n1 [Example 193, (1R,4s)-4-(2-methyl-4-(((1S,2R)-2-(quinolin-2-yl)cyclopropyl)methoxy)pyrimidin-5-yl)cyclohexanol] | 0.07
19 | Cc1ccc([C@H]2C[C@@H]2COc2nc(C)ncc2-c2ccc(C(C)O)nc2)nc1 (stereo partly drawn) [Example 148, 1-(5-(2-methyl-4-(((1S,2S)-2-(5-methylpyridin-2-yl)cyclopropyl)methoxy)pyrimidin-5-yl)pyridin-2-yl)ethanol] | 0.98
20 | COc1ccc([C@H]2C[C@@H]2COc2nc(C)ncc2[C@H]2CC[C@@H](C(=O)O)CC2)nc1 [Example 217, cis-4-(4-(((1S,2S)-2-(5-Methoxypyridin-2-yl)cyclopropyl)methoxy)-2-methylpyrimidin-5-yl)cyclohexanecarboxylic acid] | 5.29
21 | CCc1ccc([C@@H]2C[C@@H]2COc2nc(C)ncc2C2CCC(=O)CC2)nc1 [Example 195, 4-(4-(((1S,2R)-2-(5-ethylpyridin-2-yl)cyclopropyl)methoxy)-2-methylpyrimidin-5-yl)cyclohexanone] | 3.48
22 | CCc1ccc([C@H]2C[C@@H]2COc2nc(C)ncc2-c2ccc(C(C)(C)O)nc2)nc1 (single isomer, unassigned) [Example 180] | 5.95
23 | Cc1ccc([C@H]2C[C@@H]2COc2nc(C)ncc2-c2ccccc2OC(F)(F)F)nc1 [Example 5] | 3.15
24 | COc1ccc([C@H]2C[C@@H]2COc2nc(C)ncc2-c2ccc(OCC3CC3)nc2)nc1 [Example 72, 5-(6-(cyclopropylmethoxy)pyridin-3-yl)-4-(((1S,2S)-2-(5-methoxypyridin-2-yl)cyclopropyl)methoxy)-2-methylpyrimidine] | 0.5
25 | Cc1ncc(C2CCC3(CC2)OCCO3)c(OC[C@@H](C)Cc2ccc3ccccc3n2)n1 [Example 204, 2-((2S)-2-methyl-3-(2-methyl-5-(1,4-dioxaspiro[4.5]decan-8-yl)pyrimidin-4 yloxy)propyl)quinoline] | 0.73
26 | Cc1ccc([C@H]2C[C@@H]2COc2nc(C)ncc2-c2ccc(C(O)C(F)(F)F)nc2)nc1 (stereo partly drawn) [Example 145, 2,2,2-trifluoro-1-(5-(2-methyl-4-(((1S,2S)-2-(5-methylpyridin-2-yl)cyclopropyl)methoxy)pyrimidin-5-yl)pyridin-2-yl)ethanol] | 0.54
